# Source: patent US20130045943A1, “A3AR AGONISTS FOR THE TREATMENT OF UVEITIS” (THE GOVERNMENT OF THE UNITED STATES OF AMERICA AS …, priority 2010, published 2013)
# “Also recorded” adds a separate entry of the source.
# Columns and labels:
# Water solubility = assay type: physicochemical
# [1] = test system: experimental acute uveitis (EAU) induced with IRBP in C57BL/6j mice; assay: Experimental autoimmune uveitis (EAU) in mice, disease intensity scored by funduscopy; assay type: in vivo; conditions: for inhibition of fundoscopy score: oral IB-MECA 10 μg/kg twice daily from day 7
# [2] = test system: antigen-specific (IRBP) responses of T cells; assay: In vitro antigen-driven proliferation assay (3[H]-thymidine incorporation) of drain lymph node cells from treated mice; assay type: cell-based, C57BL/6j mice; conditions: lymph node cells from treated animals, cultured 48 hours with IRBP 0.2-20 μg/ml
# Description: To explore the immunological effects of IB-MECA on the antigen-specific responses of T cells, an in vitro antigen-driven proliferation assay was performed. Drain lymph nodes (inguinal and iliac) were collected from the IRBP immunized mice, both from the vehicle and from the IB-MECA treated groups. The cells were cultured for 48 hours in the presence of graded doses of IRBP (0.2-20 μg/ml) and proliferation was evaluated by an ^3[H]-thymidine incorporation assay.
# [3] = test system: experimental acute uveitis (EAU) induced with IRBP in C57BL/6j mice; assay: EAU in mice, histopathological grading of enucleated eyes; assay type: in vivo
compound,measurement,setting,value
"CNC(=O)[C@H]1OC(n2cnc3c(NCc4cccc(I)c4)ncnc32)[C@H](O)[C@@H]1O (stereo partly drawn) [IB-MECA, 1-Deoxy-1-[6-[[(3-iodophenyl)methyl]amino]-9H-purine-9-yl]-N-methyl-D-ribofuranuronamide]",water solubility,Water solubility,not water soluble
same,inhibition of fundoscopy score,[1]; day 16 after immunization,91%
same,inhibition of fundoscopy score,[1]; day 20 after immunization,49.4%
same,development of EAU (FIG. 1),[1]; result in words,inhibited
same,T cell response to IRBP (proliferation),[2],moderate response; also recorded: ameliorates
same,histopathological score of EAU (FIG. 2),[3]; result in words,decreased
same,inhibition of pathological score in comparison to the vehicle-treated group,"[3]; upon study termination, oral IB-MECA 10 μg/kg twice daily from day 7",53%
